Measurements taken from ChEMBL document CHEMBL3045446, “In vitro antimicrobial and antimycobacterial activity of some chalcones and their derivatives” (2013).
≈ marks a conversion by molar mass, not a printed value.

What was measured:
Type in all cases: functional
Proteus vulgaris [1] = test: Antimicrobial activity against Proteus vulgaris MTCC 1771 assessed as diameter of growth inhibition zone after 24 hr
Bacillus cereus [2] = test: Antimicrobial activity against Bacillus cereus MTCC 430 assessed as diameter of growth inhibition zone after 24 hr
Staphylococcus aureus [3] = test: Antimicrobial activity against Staphylococcus aureus MTCC 96 assessed as diameter of growth inhibition zone after 24 hr
Candida albicans [4] = test: Antimicrobial activity against Candida albicans MTCC 183 assessed as growth inhibition after 48 hr by agar streak dilution method; settings: MTCC 183, 48 h
Salmonella typhi [5] = test: Antimicrobial activity against Salmonella enterica subsp. enterica serovar Typhi MTCC 733 assessed as growth inhibition after 24 hr by agar streak dilution method; settings: MTCC 733, 24 h
Proteus vulgaris [6] = test: Antimicrobial activity against Proteus vulgaris MTCC 1771 assessed as growth inhibition after 24 hr by agar streak dilution method; settings: MTCC 1771, 24 h
Bacillus cereus [7] = test: Antimicrobial activity against Bacillus cereus MTCC 430 assessed as growth inhibition after 24 hr by agar streak dilution method; settings: MTCC 430, 24 h
Aspergillus niger [8] = test: Antimicrobial activity against Aspergillus niger MTCC 282 assessed as growth inhibition after 48 hr by agar streak dilution method; settings: MTCC 282, 48 h
Shigella flexneri [9] = test: Antimicrobial activity against Shigella flexneri MTCC1457 assessed as diameter of growth inhibition zone after 24 hr
Candida albicans [10] = test: Antimicrobial activity against Candida albicans MTCC 183 assessed as diameter of growth inhibition zone after 48 hr
Aspergillus niger [11] = test: Antimicrobial activity against Aspergillus niger MTCC 282 assessed as diameter of growth inhibition zone after 48 hr
Klebsiella pneumoniae [12] = test: Antimicrobial activity against Klebsiella pneumoniae MTCC 109 assessed as diameter of growth inhibition zone after 24 hr
Aspergillus fumigatus [13] = test: Antimicrobial activity against Aspergillus fumigatus MTCC 343 assessed as growth inhibition after 48 hr by agar streak dilution method; settings: MTCC 343, 48 h
Aspergillus clavatus [14] = test: Antimicrobial activity against Aspergillus clavatus MTCC 1323 assessed as growth inhibition after 48 hr by agar streak dilution method; settings: MTCC 1323, 48 h
[15] = tested on: Mycobacterium tuberculosis; test: Antituberculosis activity against Mycobacterium tuberculosis H37Rv assessed as growth inhibition after 12 to 28 days by L-J MIC method; settings: for MIC: Mycobacterium tuberculosis, H37Rv
Klebsiella pneumoniae [16] = test: Antimicrobial activity against Klebsiella pneumoniae MTCC 109 assessed as growth inhibition after 24 hr by agar streak dilution method; settings: MTCC 109, 24 h
Aspergillus clavatus [17] = test: Antimicrobial activity against Aspergillus clavatus MTCC 1323 assessed as diameter of growth inhibition zone after 48 hr
Escherichia coli [18] = test: Antimicrobial activity against Escherichia coli MTCC 739 assessed as diameter of growth inhibition zone after 24 hr
Staphylococcus aureus [19] = test: Antimicrobial activity against Staphylococcus aureus MTCC 96 assessed as growth inhibition after 24 hr by agar streak dilution method; settings: MTCC 96, 24 h
Salmonella typhi [20] = test: Antimicrobial activity against Salmonella enterica subsp. enterica serovar Typhi MTCC 733 assessed as diameter of growth inhibition zone after 24 hr
Pseudomonas aeruginosa [21] = test: Antimicrobial activity against Pseudomonas aeruginosa MTCC 741 assessed as diameter of growth inhibition zone after 24 hr
Escherichia coli [22] = test: Antimicrobial activity against Escherichia coli MTCC 739 assessed as growth inhibition after 24 hr by agar streak dilution method; settings: MTCC 739, 24 h
Aspergillus fumigatus [23] = test: Antimicrobial activity against Aspergillus fumigatus MTCC 343 assessed as diameter of growth inhibition zone after 48 hr
Shigella flexneri [24] = test: Antimicrobial activity against Shigella flexneri MTCC1457 assessed as growth inhibition after 24 hr by agar streak dilution method; settings: MTCC1457, 24 h
Pseudomonas aeruginosa [25] = test: Antimicrobial activity against Pseudomonas aeruginosa MTCC 741 assessed as growth inhibition after 24 hr by agar streak dilution method; settings: MTCC 741, 24 h

| Compound | diameter of the inhibition zone (DIZ) (Proteus vulgaris [1]) [mm] | diameter of the inhibition zone (DIZ) (Bacillus cereus [2]) [mm] | diameter of the inhibition zone (DIZ) (Staphylococcus aureus [3]) [mm] | MIC (Candida albicans [4]) [µg/mL] | MIC (Salmonella typhi [5]) [µg/mL] | MIC (Proteus vulgaris [6]) [µg/mL] | MIC (Bacillus cereus [7]) [µg/mL] | MIC (Aspergillus niger [8]) [µg/mL] | diameter of the inhibition zone (DIZ) (Shigella flexneri [9]) [mm] | diameter of the inhibition zone (DIZ) (Candida albicans [10]) [mm] | diameter of the inhibition zone (DIZ) (Aspergillus niger [11]) [mm] | diameter of the inhibition zone (DIZ) (Klebsiella pneumoniae [12]) [mm] | MIC (Aspergillus fumigatus [13]) [µg/mL] | MIC (Aspergillus clavatus [14]) [µg/mL] | growth inhibition (GI) [15] [%] | MIC [15] [µg/mL] | MIC (Klebsiella pneumoniae [16]) [µg/mL] | diameter of the inhibition zone (DIZ) (Aspergillus clavatus [17]) [mm] | diameter of the inhibition zone (DIZ) (Escherichia coli [18]) [mm] | MIC (Staphylococcus aureus [19]) [µg/mL] | other results |
| --- | --- | --- | --- | --- | --- | --- | --- | --- | --- | --- | --- | --- | --- | --- | --- | --- | --- | --- | --- | --- | --- |
| Cc1ccc(/C=C/C(=O)c2ccc(Nc3cc(=O)oc4ccccc34)cc2)cc1 | 19 | 15 | 14 | 100 (≈ 262 µM) | 100 (≈ 262 µM) | 50 (≈ 131 µM) | 100 (≈ 262 µM) | 100 (≈ 262 µM) | 18 | 11 | 14 | 10 | 100 (≈ 262 µM) | 100 (≈ 262 µM) | 96 | 500 (≈ 1310 µM) | 100 (≈ 262 µM) | <10 | <10 | 100 (≈ 262 µM) | diameter of the inhibition zone (DIZ) (Salmonella typhi [20]): 13 mm; diameter of the inhibition zone (DIZ) (Pseudomonas aeruginosa [21]): 15 mm; MIC (Escherichia coli [22]): 100 µg/mL (≈ 262 µM); diameter of the inhibition zone (DIZ) (Aspergillus fumigatus [23]): 13 mm; MIC (Shigella flexneri [24]): 50 µg/mL (≈ 131 µM); MIC (Pseudomonas aeruginosa [25]): 100 µg/mL (≈ 262 µM) |
| Nc1nc(-c2ccc(Nc3cc(=O)oc4ccccc34)cc2)cc(-c2ccc(O)cc2O)n1 | 28 | 21 | 21 | 25 (≈ 57 µM) | 12.5 (≈ 28.5 µM) | 3.12 (≈ 7.12 µM) | 12.5 (≈ 28.5 µM) | 12.5 (≈ 28.5 µM) | 23 | 21 | 22 | 26 | 12.5 (≈ 28.5 µM) | 6.25 (≈ 14.3 µM) | 97 | 200 (≈ 456 µM) | 6.25 (≈ 14.3 µM) | 25 | 22 | 12.5 (≈ 28.5 µM) | diameter of the inhibition zone (DIZ) (Salmonella typhi [20]): 24 mm; diameter of the inhibition zone (DIZ) (Pseudomonas aeruginosa [21]): 23 mm; MIC (Escherichia coli [22]): 12.5 µg/mL (≈ 28.5 µM); diameter of the inhibition zone (DIZ) (Aspergillus fumigatus [23]): 25 mm; MIC (Shigella flexneri [24]): 12.5 µg/mL (≈ 28.5 µM); MIC (Pseudomonas aeruginosa [25]): 12.5 µg/mL (≈ 28.5 µM) |
| Cc1ccc(-c2cc(-c3ccc(Nc4cc(=O)oc5ccccc45)cc3)nc(N)c2C#N)cc1 | 24 | 23 | 21 | 3.12 (≈ 7.02 µM) | 25 (≈ 56.2 µM) | 12.5 (≈ 28.1 µM) | 25 (≈ 56.2 µM) | 12.5 (≈ 28.1 µM) | 25 | 28 | 24 | 18 | 25 (≈ 56.2 µM) | 25 (≈ 56.2 µM) | 98 | 100 (≈ 225 µM) | 50 (≈ 112 µM) | 20 | 20 | 25 (≈ 56.2 µM) | diameter of the inhibition zone (DIZ) (Salmonella typhi [20]): 21 mm; diameter of the inhibition zone (DIZ) (Pseudomonas aeruginosa [21]): 22 mm; MIC (Escherichia coli [22]): 25 µg/mL (≈ 56.2 µM); diameter of the inhibition zone (DIZ) (Aspergillus fumigatus [23]): 21 mm; MIC (Shigella flexneri [24]): 12.5 µg/mL (≈ 28.1 µM); MIC (Pseudomonas aeruginosa [25]): 12.5 µg/mL (≈ 28.1 µM) |
| Cc1ccc(-c2cc(-c3ccc(Nc4cc(=O)oc5ccccc45)cc3)nc(N)n2)cc1 | 21 | 19 | 18 | 50 (≈ 119 µM) | 50 (≈ 119 µM) | 25 (≈ 59.5 µM) | 50 (≈ 119 µM) | 25 (≈ 59.5 µM) | 22 | 16 | 21 | 16 | 50 (≈ 119 µM) | 100 (≈ 238 µM) | 98 | 200 (≈ 476 µM) | 100 (≈ 238 µM) | 16 | 15 | 50 (≈ 119 µM) | diameter of the inhibition zone (DIZ) (Salmonella typhi [20]): 18 mm; diameter of the inhibition zone (DIZ) (Pseudomonas aeruginosa [21]): 19 mm; MIC (Escherichia coli [22]): 100 µg/mL (≈ 238 µM); diameter of the inhibition zone (DIZ) (Aspergillus fumigatus [23]): 18 mm; MIC (Shigella flexneri [24]): 25 µg/mL (≈ 59.5 µM); MIC (Pseudomonas aeruginosa [25]): 50 µg/mL (≈ 119 µM) |
